What is called MIC is the lowest concentration found to suppress growth. A lower MIC goes with inhibition by little substance. Broadly, the MFC is the smallest concentration meeting the test's criterion for killing the fungus. A high value points to weaker fungicidal potency. In general, MBC refers to the smallest concentration meeting the test's criterion for killing. A high value points to less potent killing.

In brackets after ≈: the same amount, converted by molar mass.

For five compounds, MIC, MFC and MBC results are on record in ChEMBL document CHEMBL4725318, “New vinyl-1,2,4-triazole derivatives as antimicrobial agents: Synthesis, biological evaluation and molecular docking studies” (2020).

What all share (assay type): functional
Experiment [1] has as its system Aspergillus fumigatus. Put plainly: Antifungal activity Aspergillus fumigatus by microdilution method. A general note: Broth dilution looks for growth in wells or tubes with falling amounts of substance.
Experiment [2] relates to Aspergillus versicolor. Description: Antifungal activity Aspergillus versicolor by microdilution method.
Experiment [3] has as its system Aspergillus ochraceus. Put plainly: Antifungal activity Aspergillus ochraceus by microdilution method.
For experiment [4], the system named is Aspergillus niger. Put plainly: Antifungal activity Aspergillus niger by microdilution method.
Experiment [5] concerns Trichoderma viride. Put plainly: Antifungal activity Trichoderma viride by microdilution method.
For experiment [6], the system named is Talaromyces funiculosus. Put plainly: Antifungal activity Penicillium funiculosum by microdilution method.
Experiment [7] deals with Penicillium ochrochloron. Description: Antifungal activity Penicillium ochrochloron by microdilution method.
The subject of experiment [8] is Penicillium cyclopium. Description: Antifungal activity Penicillium verrucosum var. cyclopium by microdilution method.
For experiment [9], the system named is Aspergillus fumigatus. Put plainly: Fungicidal activity Aspergillus fumigatus.
Experiment [10] relates to Aspergillus versicolor. Put plainly: Fungicidal activity Aspergillus versicolor.
Experiment [11] deals with Aspergillus ochraceus. Description: Fungicidal activity Aspergillus ochraceus.
The test system of experiment [12] is Aspergillus niger. Description: Fungicidal activity Aspergillus niger.
Experiment [13] concerns Trichoderma viride. Description: Fungicidal activity Trichoderma viride.
For experiment [14], the system named is Talaromyces funiculosus. Put plainly: Fungicidal activity Penicillium funiculosum.
Experiment [15] has as its system Penicillium ochrochloron. Description: Fungicidal activity Penicillium ochrochloron.
The subject of experiment [16] is Penicillium cyclopium. Description: Fungicidal activity Penicillium verrucosum var. cyclopium.
For experiment [17], the system named is Bacillus subtilis. Description: Antibacterial activity against Bacillus subtilis by microdilution method.
For experiment [18], the system named is Pseudomonas fluorescens. Description: Antibacterial activity against Pseudomonas fluorescens by microdilution method.
Experiment [19] relates to Erwinia amylovora. Description: Antibacterial activity against Erwinia amylovora by microdilution method.
Experiment [20] relates to Pectobacterium carotovorum. Description: Antibacterial activity against Erwinia carotovora by microdilution method.
The subject of experiment [21] is Xanthomonas campestris. Put plainly: Antibacterial activity against Xanthomonas campestris by microdilution method.
Experiment [22] relates to Bacillus subtilis. Description: Bactericidal activity against Bacillus subtilis.
Experiment [23] relates to Pseudomonas fluorescens. Put plainly: Bactericidal activity against Pseudomonas fluorescens.
Experiment [24] concerns Erwinia amylovora. Put plainly: Bactericidal activity against Erwinia amylovora.
Experiment [25] has as its system Pectobacterium carotovorum. Put plainly: Bactericidal activity against Erwinia carotovora.
The subject of experiment [26] is Xanthomonas campestris. Description: Bactericidal activity against Xanthomonas campestris.

As for `CC(=O)N1CCN(c2ccc(OCC3COC(Cn4ccnc4)(c4ccc(Cl)cc4Cl)O3)cc2)CC1` (stereo not given) [KETOCONAZOLE], the MIC in experiment [1] is 380 µM (≈ 202 µg/mL); in experiment [2], 380 µM (≈ 202 µg/mL); in [3], 280 µM (≈ 149 µg/mL); in experiment [4], 380 µM (≈ 202 µg/mL); in experiment [5] it was 1880 µM (≈ 999 µg/mL); in experiment [6], 380 µM (≈ 202 µg/mL). Besides, the MIC worked out at 1880 µM (≈ 999 µg/mL) in [7] and 380 µM (≈ 202 µg/mL) in experiment [8]. The MFC in [9] worked out at 940 µM (≈ 500 µg/mL); in [10], 940 µM (≈ 500 µg/mL); in [11], 380 µM (≈ 202 µg/mL); in experiment [12], 940 µM (≈ 500 µg/mL); in experiment [13] it was 2820 µM (≈ 1500 µg/mL); in experiment [14], 940 µM (≈ 500 µg/mL). Further, the figures for the MFC in [15] and in [16] were 2820 µM (≈ 1500 µg/mL) and 570 µM (≈ 303 µg/mL), respectively.
On to `CC(C)CC(=O)/C(=C/c1ccc([N+](=O)[O-])cc1)n1cncn1`, for which the MIC is 0.8 µM (≈ 0.24 µg/mL) in experiment [17]; 3.3 µM (≈ 0.991 µg/mL) in experiment [18]; 0.4 µM (≈ 0.12 µg/mL) in experiment [19]; 0.4 µM (≈ 0.12 µg/mL) in experiment [20]; 0.8 µM (≈ 0.24 µg/mL) in [21]; 20 µM (≈ 6.01 µg/mL) in [1]. For the same compound, the MIC in experiment [2] came out at 40 µM (≈ 12 µg/mL); in [3], 20 µM (≈ 6.01 µg/mL); in experiment [4], 20 µM (≈ 6.01 µg/mL); in [5], 30 µM (≈ 9.01 µg/mL); in experiment [6] it was 40 µM (≈ 12 µg/mL); in experiment [7] it was 30 µM (≈ 9.01 µg/mL). Besides, the lowest concentration to inhibit growth in [8] (MIC) was 40 µM (≈ 12 µg/mL). Also, the MBC in [22] was 0.8 µM (≈ 0.24 µg/mL); in experiment [23], 3.3 µM (≈ 0.991 µg/mL); in experiment [24], 0.8 µM (≈ 0.24 µg/mL); in experiment [25] it was 0.8 µM (≈ 0.24 µg/mL); in experiment [26] it was 0.8 µM (≈ 0.24 µg/mL). Besides, the minimal fungicidal concentration (MFC) in experiment [9] amounted to 30 µM (≈ 9.01 µg/mL); in experiment [10] it was 60 µM (≈ 18 µg/mL); in experiment [11], 30 µM (≈ 9.01 µg/mL); in experiment [12], 30 µM (≈ 9.01 µg/mL); in experiment [13], 60 µM (≈ 18 µg/mL); in experiment [14] it was 60 µM (≈ 18 µg/mL). Further, the MFC in experiment [15] and in [16] was 60 µM (≈ 18 µg/mL) in each case.
Consider `CN(C)c1ccc(/C=C(/C(=O)c2ccc(-c3ccccc3)cc2)n2cncn2)cc1`, for which the MIC in experiment [17] came out at 2.5 µM (≈ 0.986 µg/mL); in experiment [18] it was 2.5 µM (≈ 0.986 µg/mL); in experiment [19], 2.5 µM (≈ 0.986 µg/mL); in experiment [20], 2.5 µM (≈ 0.986 µg/mL); in experiment [21], 5.1 µM (≈ 2.01 µg/mL); in experiment [1], 250 µM (≈ 98.6 µg/mL). Besides, the minimal inhibitory concentration (MIC) in [2] stood at 250 µM (≈ 98.6 µg/mL); in experiment [3] it was 130 µM (≈ 51.3 µg/mL); in experiment [4], 250 µM (≈ 98.6 µg/mL); in experiment [5] it was 90 µM (≈ 35.5 µg/mL); in experiment [6], 180 µM (≈ 71 µg/mL); in experiment [7] it was 130 µM (≈ 51.3 µg/mL). The compound also yielded an MIC in [8] of 250 µM (≈ 98.6 µg/mL). In addition, the MBC in [22] turned out to be 5.1 µM (≈ 2.01 µg/mL); in [23], 2.5 µM (≈ 0.986 µg/mL); in experiment [24] it was 2.5 µM (≈ 0.986 µg/mL); in experiment [25], 5.1 µM (≈ 2.01 µg/mL); in experiment [26], 5.1 µM (≈ 2.01 µg/mL). Further, the MFC in [9] is 510 µM (≈ 201 µg/mL); in experiment [10], 510 µM (≈ 201 µg/mL); in experiment [11], 250 µM (≈ 98.6 µg/mL); in experiment [12], 510 µM (≈ 201 µg/mL); in experiment [13], 130 µM (≈ 51.3 µg/mL); in experiment [14], 250 µM (≈ 98.6 µg/mL). For the same compound, the MFC was 250 µM (≈ 98.6 µg/mL) in experiment [15] and 510 µM (≈ 201 µg/mL) in [16].
As to `O=C(/C(=C/c1ccc([N+](=O)[O-])cc1)n1cncn1)c1ccc(Cl)cc1`, the MIC in experiment [17] was 1.3 µM (≈ 0.461 µg/mL); in [18], 0.6 µM (≈ 0.213 µg/mL); in experiment [19] it was 1.3 µM (≈ 0.461 µg/mL); in [20] it was 1.3 µM (≈ 0.461 µg/mL); in experiment [21] it was 1.3 µM (≈ 0.461 µg/mL); in experiment [1] it was 100 µM (≈ 35.5 µg/mL). For the same compound, the MIC in experiment [2] amounted to 100 µM (≈ 35.5 µg/mL); in experiment [3], 70 µM (≈ 24.8 µg/mL); in experiment [4] it was 140 µM (≈ 49.7 µg/mL); in experiment [5] it was 70 µM (≈ 24.8 µg/mL); in [6] it was 140 µM (≈ 49.7 µg/mL); in experiment [7], 100 µM (≈ 35.5 µg/mL). 140 µM (≈ 49.7 µg/mL) was the least that counted as inhibitory in [8] (MIC). Besides, the MBC in [22], in [23], in [24], in [25] and in experiment [26] was 1.3 µM (≈ 0.461 µg/mL) in each case. Besides, the MFC in [9] was 190 µM (≈ 67.4 µg/mL); in [10] it was 190 µM (≈ 67.4 µg/mL); in [11], 100 µM (≈ 35.5 µg/mL); in experiment [12], 190 µM (≈ 67.4 µg/mL); in experiment [13], 100 µM (≈ 35.5 µg/mL); in experiment [14], 190 µM (≈ 67.4 µg/mL). Further, the MFC in [15] and in [16] was 190 µM (≈ 67.4 µg/mL) each time.
In the case of `CN(C)c1ccc(/C=C(/C(=O)c2ccc3ccccc3c2)n2cncn2)cc1`, the MIC was found to be 5.4 µM (≈ 1.99 µg/mL) in experiment [17]; 2.7 µM (≈ 0.995 µg/mL) in [18]; 2.7 µM (≈ 0.995 µg/mL) in experiment [19]; 2.7 µM (≈ 0.995 µg/mL) in [20]; 2.7 µM (≈ 0.995 µg/mL) in experiment [21]; 140 µM (≈ 51.6 µg/mL) in experiment [1]. For the same compound, the MIC in experiment [2] came to 140 µM (≈ 51.6 µg/mL); in [3], 70 µM (≈ 25.8 µg/mL); in [4] it was 140 µM (≈ 51.6 µg/mL); in [5] it was 70 µM (≈ 25.8 µg/mL); in [6] it was 190 µM (≈ 70 µg/mL); in [7], 140 µM (≈ 51.6 µg/mL). Besides, the lowest concentration to inhibit growth in experiment [8] (MIC) was 140 µM (≈ 51.6 µg/mL). Also, the minimal bactericidal concentration (MBC) was 5.4 µM (≈ 1.99 µg/mL) in experiment [22]; 2.7 µM (≈ 0.995 µg/mL) in experiment [23]; 5.4 µM (≈ 1.99 µg/mL) in experiment [24]; 2.7 µM (≈ 0.995 µg/mL) in experiment [25]; 5.4 µM (≈ 1.99 µg/mL) in experiment [26]. In addition, the MFC in experiment [9] is 270 µM (≈ 99.5 µg/mL); in experiment [10], 270 µM (≈ 99.5 µg/mL); in experiment [11], 140 µM (≈ 51.6 µg/mL); in [12], 270 µM (≈ 99.5 µg/mL); in experiment [13], 140 µM (≈ 51.6 µg/mL); in experiment [14], 270 µM (≈ 99.5 µg/mL). Also, the MFC in experiment [15] and in [16] was 270 µM (≈ 99.5 µg/mL) in each case.
